Measured values taken from PubChem BioAssay (NCI).
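These data come from cells grown in 96-well plates and exposed to compound for 48 hours at five concentrations. At the GI50, growth is halved. The concentration for full growth arrest is given as TGI.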

Columns and labels:
Experiment in all cases: DTP human tumour cell line panel, 48 h
K-562 leukemia = system: K-562 leukemia
SF-539 CNS = system: SF-539 CNS
KM12 colon = system: KM12 colon
HL-60(TB) leukemia = system: HL-60(TB) leukemia
HT29 colon = system: HT29 colon
DU-145 prostate = system: DU-145 prostate
RXF 393 renal = system: RXF 393 renal
NCI-H522 lung = system: NCI-H522 lung
EKVX NSCLC = system: EKVX NSCLC
SK-MEL-2 melanoma = system: SK-MEL-2 melanoma

With `O=C(O)Cc1[nH]cnc1C(=O)O` the TGI (K-562 leukemia) was > 100 µM, the TGI (SF-539 CNS) was > 100 µM and the TGI (KM12 colon) was > 100 µM. The TGI (HL-60(TB) leukemia) was > 100 µM, the TGI (HT29 colon) was > 100 µM and the TGI (DU-145 prostate) was > 100 µM. The TGI (RXF 393 renal) was > 100 µM, the TGI (NCI-H522 lung) was > 100 µM and the TGI (EKVX NSCLC) was > 100 µM. For the same molecule, the TGI (SK-MEL-2 melanoma) was > 100 µM.

With `COc1ccc(/C=C/[N+](=O)[O-])cc1` the TGI (K-562 leukemia) was > 100 µM, the TGI (SF-539 CNS) was 4.92 µM and the TGI (KM12 colon) was 12 µM. For the same molecule, the TGI (HL-60(TB) leukemia) was 8.82 µM, the TGI (HT29 colon) was 11.2 µM and the TGI (DU-145 prostate) was 20.3 µM. It also gave a TGI (NCI-H522 lung) of 43.4 µM, a TGI (EKVX NSCLC) of 41 µM and a TGI (SK-MEL-2 melanoma) of 52.7 µM.

For `CSc1sc(=S)sc1SC`, the TGI (K-562 leukemia) was > 100 µM, the TGI (SF-539 CNS) was > 100 µM and the TGI (KM12 colon) was > 100 µM. For the same molecule, the TGI (HL-60(TB) leukemia) was > 31.6 µM, the TGI (HT29 colon) was > 100 µM and the TGI (RXF 393 renal) was > 100 µM. For the same molecule, the TGI (NCI-H522 lung) was > 100 µM, the TGI (EKVX NSCLC) was > 100 µM and the TGI (SK-MEL-2 melanoma) was > 31.6 µM.

`COc1ccc(/C(Cl)=C(\C=O)c2ccc(Cl)c(Cl)c2)cc1OC` was tested, and the TGI (K-562 leukemia) was > 100 µM, the TGI (SF-539 CNS) was 19.2 µM and the TGI (HL-60(TB) leukemia) was 6.67 µM. For the same molecule, the TGI (HT29 colon) was 8.77 µM, the TGI (NCI-H522 lung) was 6.53 µM and the TGI (EKVX NSCLC) was 30.6 µM. For the same molecule, the TGI (SK-MEL-2 melanoma) was 15 µM.

`COc1cc2c3c(c4cc(OC)c(OC)cc4c2cc1OC)[C@H](O)[C@@H]1CCCN1C3` was tested, and the TGI (K-562 leukemia) was > 100 µM, the TGI (KM12 colon) was 1.52 µM and the TGI (HL-60(TB) leukemia) was 3.49 µM. For the same molecule, the TGI (HT29 colon) was 1.53 µM, the TGI (DU-145 prostate) was 1.45 µM and the TGI (RXF 393 renal) was 1.28 µM. For the same molecule, the TGI (NCI-H522 lung) was 1.55 µM, the TGI (EKVX NSCLC) was 0.938 µM and the TGI (SK-MEL-2 melanoma) was 0.234 µM.

In the case of `C[C@H](CCC1=NCCN1)[C@H]1CC[C@H]2[C@@H]3CC[C@@H]4C[C@H](O)CC[C@]4(C)[C@H]3CC[C@]12C`, the TGI (K-562 leukemia) is reported as > 21.8 µM, the TGI (SF-539 CNS) is reported as > 58.1 µM and the TGI (KM12 colon) is reported as > 47.4 µM. The TGI (HT29 colon) was 3.65 µM, the TGI (DU-145 prostate) was 35.8 µM and the TGI (RXF 393 renal) was 55.2 µM. For the same molecule, the TGI (NCI-H522 lung) was 14.3 µM, the TGI (EKVX NSCLC) was 30.1 µM and the TGI (SK-MEL-2 melanoma) was 21.3 µM.

`S=C1NN=C2C(=C3CCCC4C5CCCCC5N2C34)N1` (stereo not drawn) was tested, and the TGI (K-562 leukemia) was > 100 µM, the TGI (KM12 colon) was > 100 µM and the TGI (HL-60(TB) leukemia) was > 100 µM. The TGI (DU-145 prostate) was > 100 µM and the TGI (NCI-H522 lung) was > 100 µM.

For `COc1cc2c3c(n(C4CCNCC4)c(=O)c2cc1OC)-c1cc2c(cc1C3=O)OCO2`, the GI50 (KM12 colon) was 1.11 µM, the TGI (KM12 colon) was 2.53 µM and the GI50 (HL-60(TB) leukemia) was 0.364 µM. For the same molecule, the TGI (HL-60(TB) leukemia) was 1.49 µM, the GI50 (HT29 colon) was 0.264 µM and the TGI (HT29 colon) was 2.33 µM. It also gave a GI50 (DU-145 prostate) of 0.423 µM, a TGI (DU-145 prostate) of 1.55 µM and a GI50 (NCI-H522 lung) of 0.296 µM. The TGI (NCI-H522 lung) was 2.99 µM, the GI50 (SK-MEL-2 melanoma) was 20.1 µM and the TGI (SK-MEL-2 melanoma) was > 100 µM.

`CCCCCCCCCCCCCCCCOCCCOP(=O)(O)C1CCCN(O)C1=O` (stereo not drawn) was tested, and the GI50 (K-562 leukemia) was 4.25 µM, the TGI (K-562 leukemia) was 42.3 µM and the GI50 (SF-539 CNS) was 3.02 µM. It also gave a TGI (SF-539 CNS) of 11 µM, a GI50 (KM12 colon) of 0.572 µM and a TGI (KM12 colon) of 11.3 µM. It also gave a GI50 (HL-60(TB) leukemia) of 1.31 µM, a TGI (HL-60(TB) leukemia) of 10.3 µM and a GI50 (HT29 colon) of 0.953 µM. The TGI (HT29 colon) was 83.5 µM, the GI50 (DU-145 prostate) was 2.53 µM and the TGI (DU-145 prostate) was > 100 µM. For the same molecule, the GI50 (RXF 393 renal) was 1.9 µM, the TGI (RXF 393 renal) was 12.2 µM and the GI50 (NCI-H522 lung) was 2.76 µM. The TGI (NCI-H522 lung) was 14.8 µM, the GI50 (EKVX NSCLC) was 3.6 µM and the TGI (EKVX NSCLC) was 16.3 µM. The GI50 (SK-MEL-2 melanoma) was 5.95 µM and the TGI (SK-MEL-2 melanoma) was 24.6 µM.

`NC(=O)c1cc(C2OC(CO)C(O)C2O)nn1-c1ccc([N+](=O)[O-])cc1` (stereo not drawn) was tested, and the TGI (K-562 leukemia) was > 100 µM, the TGI (SF-539 CNS) was > 100 µM and the TGI (KM12 colon) was > 100 µM. The TGI (HL-60(TB) leukemia) was > 100 µM, the TGI (HT29 colon) was > 100 µM and the TGI (RXF 393 renal) was > 100 µM. For the same molecule, the TGI (EKVX NSCLC) was > 100 µM and the TGI (SK-MEL-2 melanoma) was > 100 µM.
